According to US12076331B2, “Inositol derivatives for use in pathological crystallization” (ETH Zurich, priority 2015, dated 2024):

Tests used:
[1] = system: RPTEC/TERT 1 human proximal tubule cells; experiment: CaP-induced CaOx crystallization on RPTEC monolayers; assay type: cell-based; settings: CaP-induced model, 1.2 mM oxalate, 4 h
Procedure: For the assessment of CaP-induced CaOx crystallization, after 24 h of incubation, Ca/P spiked medium was removed, and cells were washed twice with PBS. Subsequently, medium containing 1.2 mM oxalate and compound was added to each well. After 4 h of incubation at 37° C. and 5% CO2 treatment was removed, and cells washed once with PBS before staining.
For staining, ProxUp basal medium was mixed with calcein (500 nM final concentration), EthD (6 μM final concentration), CellMask stain ([…]) and Hoechst 33342. Staining mixture was added to RPTEC and cells were incubated for 30 min in the dark at 37° C. and 5% CO2. Staining solution was removed, cells were washed with PBS once and ProxUp basal medium was added. Cells were immediately imaged after staining. […] For quantification 3 wells/condition were prepared and 3 images/well were taken. […]
To allow rapid profiling of molecules for their effects on diverse kidney calcification processes, the inventors developed a cell-based assay that allowed the monitoring of CaP deposition, as well as cellular changes associated with it. Therefore, the inventors utilized monolayers of renal proximal tubular cells (RPTEC) stained with various dyes to quantify calcification and cell morphology changes (FIG. 3). […] CaP deposits were detected via calcein staining (FIG. 3B). […]

[2] = system: high phosphate-induced kidney damage; experiment: mouse model of high phosphate-induced kidney damage; assay type: in vivo, C57BL/6 male mice; settings: 100 mg/kg 3 times/week subcutaneously, high phosphate diet, vs vehicle
Procedure: C57BL/6 male were placed on either regular diet containing 0.35% inorganic phosphate (NP) or high phosphate diet containing 2.0% inorganic phosphate (HP). These mice were subcutaneously injected with either (OEG2)2-IP4 (100 mg/kg) or vehicle (distilled water) three times a week and then sacrificed at 20 weeks of age to harvest their blood and kidneys. Relative mRNA levels of (A) Spp1, (B) IL36a, (C) Ngal, (D) MMP3 and (E) Col1a1 in kidney tissue homogenate are shown (mean±SD, N=7, except HP vehicle group N=6, two-way ANOVA with Sidak's multiple comparison between (OEG2)2-IP4 vs. vehicle control within the respective diet group, ns—not significant, * p<0.05). […]
C57BL/6 male mice (12 weeks of age) were placed on either regular diet containing 0.35% inorganic phosphate or high phosphate diet containing 2.0% inorganic phosphate. […] Serum FGF23 levels were measured using intact FGF23 ELISA (Kinos) according to the manufacturers' protocols. Serum and urine levels of phosphate were measured using Fuji Dri-Chem slides and the analyzer (Dri-Chem NX500V, Fuji, Tokyo, Japan). […] Quantitative RT-PCR reactions were performed using 20 ng of cDNA incubated with 410 nM of each primer and 6 μL of SYBR Green PCR Master mix (Toyoba, Osaka, Japan THUNDERBIRD SYBR qPCR Mix QPS-201) in a total volume of 12 μl. […] The cortex and the cortico-medullary junction were evaluated separately. […]

[3] = reported, Schantl et al. 2020; cited from earlier work

Q: Which “CaP-induced CaOx crystallization” value [1] does the source give for COCCOCCO[C@@H]1C(OP(=O)(O)O)[C@H](OCCOCCOC)[C@@H](OP(=O)(O)O)C(OP(=O)(O)O)[C@H]1OP(=O)(O)O (some centres unmarked) [(OEG2)2-IP4] here?
A: reduced

Q: What about the “concentration at which COD was almost entirely abolished” value [1] of the same compound?
A: 100 µM

Q: What about the “fibrosis, collagen volume fraction (Picro-Sirius red staining of the kidneys)” value [2] of the same compound?
A: significantly reduces fibrosis

Q: And the “kidney damage and fibrosis markers (Spp1, IL36a, Ngal, MMP3, Col1a1 mRNA)” value [2]?
A: significantly reduced

Q: And the pharmacokinetic profile [3]?
A: favorable
